Test results from patent US11753371B2 (BATTERJEE MEDICAL COLLEGE, priority 2021, dated 2023).

Experiments:
Assay type in all cases: biochemical
human FAAH (hFAAH) = human FAAH (hFAAH) (Homo sapiens (Human), UniProt O00519); assay: FAAH enzyme inhibition assay (Cayman screening kit, AMC-arachidonoyl amide); parameters: key to IC50 (μM) ± SE (hFAAH): NI: no inhibition seen at the tested conditions
Method: FAAH inhibition assay was performed using Fatty Acid Amide Hydrolase Inhibitor Screening Assay Kit (Item #10005196), Cayman (1180 E Ellsworth Rd Ann Arbor, MI, USA). […] Manufacturer's protocol was followed to perform the assay. The assay buffer (125 mM Tri-HCl with 1 mM EDTA, pH 9.0) was used to dilute the FAAH human recombinant enzyme. AMC-Arachidonoyl amide, at a concentration of 400 μM was then used as the FAAH substrate. Samples were mixed for 30 s and incubated at 37° C. for 30 min. The fluorescent by-product AMC (7-amino-4-methylcoumarin) released by the FAAH enzyme was detected and quantified at an excitation wavelength of 355 nm and emission wavelength of 460 nm.

ALDH1a1 = ALDH1a1 (Homo sapiens (Human), UniProt P00352); assay: ALDH assay (diaphorase/resazurin), ALDH1a1 inhibition
Chain of ALDH1a1 (P00352 whole entry): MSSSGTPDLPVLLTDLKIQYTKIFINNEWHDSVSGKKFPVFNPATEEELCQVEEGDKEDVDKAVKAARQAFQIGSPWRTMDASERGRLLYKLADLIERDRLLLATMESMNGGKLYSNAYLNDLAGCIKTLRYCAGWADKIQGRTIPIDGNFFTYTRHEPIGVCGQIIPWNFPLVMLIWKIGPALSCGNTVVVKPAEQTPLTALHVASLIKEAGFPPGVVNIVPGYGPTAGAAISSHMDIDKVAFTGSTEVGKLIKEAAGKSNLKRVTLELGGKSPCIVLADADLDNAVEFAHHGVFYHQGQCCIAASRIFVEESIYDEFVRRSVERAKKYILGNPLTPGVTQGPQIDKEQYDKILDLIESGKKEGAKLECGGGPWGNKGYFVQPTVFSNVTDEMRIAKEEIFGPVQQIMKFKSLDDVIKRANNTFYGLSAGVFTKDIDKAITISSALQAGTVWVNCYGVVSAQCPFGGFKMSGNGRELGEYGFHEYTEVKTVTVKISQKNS
From the text: (§1) ALDH catalyzes the oxidation of acetaldehyde to acetic acid while reducing NAD+ to NADH. The formation of NADH is fluorescently detected using diaphorase/resazurin system. Diaphorase utilizes NADH formed from ALDH reaction to produce the fluorescent molecule resorufin from resazurin. See Davis, M. I.; Shen, M.; Simeonov, A.; Hall, M. D., Diaphorase Coupling Protocols for Red-Shifting Dehydrogenase Assays.
(§2) The reagent ALDH1a1 is from R&D Systems (Minneapolis, MN). ALDH2 is from Prospect Bio (East Brunswick, NJ). Acetaldehyde is from Cayman Chemicals (Ann Arbor, MI). NAD^+, and Resazurin sodium salt are from Sigma (St. Louis, MO). Diaphorase is from Reaction Biology (Malvern PA). Zaba micro spin columns are from ThermoFisher scientific (Waltham, MA). […] Desalted samples from each enzyme were pooled together and placed in ice until use. Reaction buffer (50 mM sodium pyrophosphate buffer at pH 8.8, 0.01% Brij35) degassed using vacuum for 10 mins until no visible air bubbles were seen.
(§3) 5 μl of reaction buffer was delivered to ‘no enzyme’ background control wells. Test compounds were prepared in 100% DMSO by serial dilution in 100× of assay concentration. After adding the test compounds, reaction plate was centrifuged briefly in 1200 rpm, then incubated for 20 min at room temperature, to pre-incubate enzyme and compounds. […] Reaction plate was briefly centrifuged and sealed with a plastic film to limit evaporation. After incubation at room temperature for 60 min, 10 μl of detection reagent (15 μg/ml diaphorase, 30 μM resazurin prepared in the degassed reaction buffer) was added. Reaction plate was briefly centrifuged and incubated for 10 minutes at room temperature in the dark.

human MAGL (hMAGL) = human MAGL (hMAGL) (Homo sapiens (Human), UniProt Q99685); assay: MAGL enzyme inhibition assay (4-nitrophenylacetate); conditions: relative to disulfiram / unsubstituted analogue
Chain of human MAGL (hMAGL) (Q99685 whole entry): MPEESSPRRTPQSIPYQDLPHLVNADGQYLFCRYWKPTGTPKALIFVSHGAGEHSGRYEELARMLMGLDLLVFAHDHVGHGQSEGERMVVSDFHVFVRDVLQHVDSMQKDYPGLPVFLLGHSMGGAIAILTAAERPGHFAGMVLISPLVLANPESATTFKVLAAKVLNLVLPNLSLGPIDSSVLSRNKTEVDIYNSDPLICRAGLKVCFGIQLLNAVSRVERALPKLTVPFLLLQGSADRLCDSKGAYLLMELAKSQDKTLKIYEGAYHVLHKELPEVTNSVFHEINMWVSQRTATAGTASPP
Method: The plate was mixed for 30 s and incubated at room temperature for 30 min.

ALDH2 = ALDH2 (Homo sapiens (Human), UniProt P05091); assay: ALDH assay (diaphorase/resazurin), ALDH2 inhibition
Chain of ALDH2 (P05091 18-517): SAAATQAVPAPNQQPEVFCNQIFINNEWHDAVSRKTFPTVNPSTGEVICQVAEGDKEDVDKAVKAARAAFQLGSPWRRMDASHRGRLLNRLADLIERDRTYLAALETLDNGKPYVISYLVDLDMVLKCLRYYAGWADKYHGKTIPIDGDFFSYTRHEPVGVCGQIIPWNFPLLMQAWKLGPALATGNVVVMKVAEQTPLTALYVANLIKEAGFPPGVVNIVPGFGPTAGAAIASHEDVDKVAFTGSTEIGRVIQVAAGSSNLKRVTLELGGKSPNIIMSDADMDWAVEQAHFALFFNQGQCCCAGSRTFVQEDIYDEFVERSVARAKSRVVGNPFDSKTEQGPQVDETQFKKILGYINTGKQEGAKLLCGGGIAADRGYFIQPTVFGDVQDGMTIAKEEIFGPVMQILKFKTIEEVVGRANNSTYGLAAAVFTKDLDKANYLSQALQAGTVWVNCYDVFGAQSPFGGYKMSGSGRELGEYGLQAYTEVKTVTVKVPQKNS
From the text: as §1, §2, §3

[1] = Table II, average of at least two different experiments

Chain of human FAAH (hFAAH) (O00519 whole entry): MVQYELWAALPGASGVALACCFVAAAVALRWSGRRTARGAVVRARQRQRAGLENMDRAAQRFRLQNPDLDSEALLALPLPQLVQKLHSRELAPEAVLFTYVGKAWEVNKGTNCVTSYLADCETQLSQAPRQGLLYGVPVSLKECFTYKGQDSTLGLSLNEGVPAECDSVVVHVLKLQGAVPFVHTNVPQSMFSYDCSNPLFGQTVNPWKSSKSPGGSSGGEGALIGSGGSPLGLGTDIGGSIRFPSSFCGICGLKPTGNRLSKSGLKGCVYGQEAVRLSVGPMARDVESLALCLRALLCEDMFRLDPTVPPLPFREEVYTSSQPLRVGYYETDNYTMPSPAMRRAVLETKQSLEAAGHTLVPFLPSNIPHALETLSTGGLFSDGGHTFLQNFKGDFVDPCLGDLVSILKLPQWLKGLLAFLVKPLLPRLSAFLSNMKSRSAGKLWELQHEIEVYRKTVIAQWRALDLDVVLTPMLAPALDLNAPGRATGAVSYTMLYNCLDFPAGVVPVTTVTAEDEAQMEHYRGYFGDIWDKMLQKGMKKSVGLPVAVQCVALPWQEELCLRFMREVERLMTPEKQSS

Molecule	FAAH inhibitory activity (in words) (human FAAH (hFAAH))	IC50 (μM) ± SE (hFAAH) (human FAAH (hFAAH); [1])	ALDH1a1 inhibitory activity (in words) (ALDH1a1)	other results
bis(N-4-ethoxycarbonylbenzylethylthiocarbamoyl)disulphide [II-2l]	devoid of anti-FAAH activity	NI	–	–
CCN(Cc1ccc(C(=O)O)cc1)C(=S)SSC(=S)N(CC)Cc1ccc(C(=O)O)cc1 [Compound I-2d]	devoid of anti-FAAH activity	NI	–	change in ALDH1a1 inhibitory activity relative to I-2a (ALDH1a1; para carboxylic acid versus I-2a): tenfold decrease; fold decrease in MAGL inhibitory activity (human MAGL (hMAGL)): 20 fold
CCN(C)C(=S)SSC(=S)N(C)CC [Compound I-2g]	–	–	–	IC50 (ALDH1a1; Table I, mean of at least two independent experiments, read-out: IC50 (μM) ± SE (ALDH1a1)): 0.02 ± 0.01 µM; IC50 (ALDH2; Table I, mean of at least two independent experiments, read-out: IC50 (μM) ± SE (ALDH2)): 0.32 ± 0.04 µM
CC(=O)N[C@@H](CS)C(=O)O [5 N•Acetyl-i-Cysteine, N•Acetyl-i-Cysteine]	–	–	none of them showed any activity	ALDH2 inhibitory activity (in words) (ALDH2): none of them showed any activity
CCN(CCC(=O)O)C(=S)SSC(=S)N(CC)CCC(=O)O [Compound I-2e, bis(N-carboxylethylethylthiocarbamoyl)disulfide]	–	–	–	IC50 (human FAAH (hFAAH); Table II, average of at least two different experiments, read-out: IC50 (μM) ± SE (hFAAH)): 122 ± 1.57 µM
CCN(Cc1ccc(C)cc1)C(=S)SSC(=S)N(CC)Cc1ccc(C)cc1 [III-2i, bis (N-4-Methylbenzyethylthiocarbamoyl) disulphide]	–	–	–	Aldh1a1 (IC50, μM) ± SE (ALDH1a1; Table III): No inhibition; Aldh2 (IC50, μM) ± SE (ALDH2; Table III): No inhibition
Cl.NCCS [3 Cysteamine•HCl, Cysteamine•HCl]	–	–	none of them showed any activity	ALDH2 inhibitory activity (in words) (ALDH2): none of them showed any activity
CC(C)N(C(=S)SSC(=S)N(C(C)C)C(C)C)C(C)C [Compound I-2h]	–	NI	–	–
CC(C)CN(CC(C)C)C(=S)SSC(=S)N(CC(C)C)CC(C)C [Compound I-2j]	no inhibition of FAAH	NI	complete loss of activity	fold decrease in MAGL inhibitory activity (human MAGL (hMAGL)): up to 15 fold
